“Also recorded” adds a separate entry of the source.
Columns and labels:
Type in all cases: in vivo, human
[1] = system: subjects with DED; assay: Visual analog scale (VAS) ocular symptom ratings, clinical study with CAE model; details: pre-CAE and post-CAE evaluations
Description: (§1) A multi-center, randomized, double masked, placebo controlled clinical study was conducted to assess the safety and efficacy of BRM421 ophthalmic solution (OS) in subjects with DED using a controlled adverse environment (CAE®) model (Ora, Inc., Andover, MA, USA). CAE® uses controlled ocular surface stress to exacerbate the signs and symptoms of DED in a safe and controllable manner.
(§2) During the first visit (Day-7±1), the subjects were screened, evaluated before CAE®, exposed to CAE®, evaluated after CAE®, and started with the placebo run-in period (7±1 days). During the 7-day study run-in period (for the purpose of subject selection) prior to randomization, all subjects received Placebo OS bilaterally, three times daily (TID). During the second visit, subjects were evaluated before CAE®, exposed to CAE®, and evaluated after CAE®. These evaluations formed the baseline measurements. The subjects were then randomized into two groups to receive either BRM421 ophthalmic solution (OS) or Placebo OS (Vehicle) bilaterally three times daily (TID) for 14 days from Visit 2 to Visit 4.
During these visits, subjects were evaluated for symptom efficacy. Specifically, visual analog scale (VAS) was measured by asking subjects to rate each ocular symptom due to ocular dryness. Symptoms assessed include burning/stinging, itching, foreign body sensation, blurred vision, eye dryness, photophobia, and pain.

[2] = system: subjects with DED; assay: Ora Ocular Discomfort & 4-Symptom Questionnaire (ODS) diary, clinical study with CAE model; details: for Diary Dryness Change from Baseline, ANCOVA LS Mean (SE) / Diary Dryness Change from Baseline, Mean (SD) / Diary Burning Change from Baseline, ANCOVA LS Mean (SE) / Diary Ocular Discomfort Change from Baseline, ANCOVA LS Mean (SE) / Diary Burning Change from Baseline, Mean (SD) / Diary Ocular Discomfort Change from Baseline, Mean (SD): ITT observed data; for Diary Dryness Change from Baseline, Mean (SD) / Diary Burning Change from Baseline, Mean (SD) / Diary Ocular Discomfort Change from Baseline, Mean (SD): score 0 = None to 5 = Worst
Description: as §1, §2
Subjects were also asked to grade the severity of their dry eye disease symptoms in their diary in the morning and in the evening before instilling the study drug. The Ora Ocular Discomfort & 4-Symptom Questionnaire (ODS Questionnaire) was used, which included rating the severity of 5 symptoms: ocular discomfort, burning, dryness, grittiness, and stinging. Each symptom rating ranged from 0 to 5, where 0=None and 5=Worst.

[3] = system: subjects with DED; assay: Corneal damage repair assessed with fluorescein staining, clinical study
Description: as §1, §2
Severe dry eye cases can lead to cornea damages, which can be assessed with fluorescein staining. PDSP of the invention can treat DED. In addition, these PDSP can also repair corneal damages. […] The selective efficacies of BRM421 treatment in cataract patients are unexpected.

[4] = Day 1 to Day 7, morning, pre-CAE baseline
[5] = Day 8 to 15, Evening, score 0-5
[6] = Day 8 to 15, Morning, score 0-5

SLGAEQRTESIIHRALYYDLISSPDIHGT (listed as Homo sapiens) [BRM421, PEDF-derived short peptide, 29mer, residues 93-121; tested as BRM421 ophthalmic solution (OS)]
VAS dryness compared to placebo (FIG. 4F) ([1]; subjects with cataract): significant improvements
VAS dryness compared to placebo (FIG. 4E) ([1]; subjects without cataract): did not show significant improvements
Diary Dryness Change from Baseline, ANCOVA LS Mean (SE) ([2]; Day 1 to 7, Evening, score 0-5): −0.243 (0.0484)
Diary Dryness Change from Baseline, Mean (SD) ([2]; Day 1 to 7, Evening): −0.241 (0.5137)
Diary Dryness Change from Baseline, ANCOVA LS Mean Difference (SE), BRM421 OS − Placebo ([2]; Day 1 to 7, Evening, score 0-5): −0.145 (0.0671)
Diary Dryness Change from Baseline, Two-Sample t-test Mean Difference (SE), BRM421 OS − Placebo ([2]; Day 1 to 7, Evening, score 0-5): −0.140 (0.0673)
Diary Burning Change from Baseline, ANCOVA LS Mean (SE) ([2]; Day 1 to 7, Morning, score 0-5): −0.254 (0.0528)
Diary Ocular Discomfort Change from Baseline, ANCOVA LS Mean (SE) ([2]; Day 1 to 7, Morning, score 0-5): −0.138 (0.0518)
Diary Burning Change from Baseline, Mean (SD) ([2]; Day 1 to 7, Morning): −0.256 (0.5580)
Diary Ocular Discomfort Change from Baseline, Mean (SD) ([2]; Day 1 to 7, Morning): −0.149 (0.5064)
Diary Burning Change from Baseline, ANCOVA LS Mean Difference (SE), BRM421 OS − Placebo ([2]; Day 1 to 7, Morning, score 0-5): −0.173 (0.0731)
Diary Burning Change from Baseline, Two-Sample t-test Sample Mean Difference (SE), BRM421 OS − Placebo ([2]; Day 1 to 7, Morning, score 0-5): −0.172 (0.0742)
Diary Ocular Discomfort Change from Baseline, ANCOVA LS Mean Difference (SE), BRM421 OS − Placebo ([2]; Day 1 to 7, Morning, score 0-5): −0.146 (0.0717)
Diary Ocular Discomfort Change from Baseline, Two-Sample t-test Sample Mean Difference (SE), BRM421 OS − Placebo ([2]; Day 1 to 7, Morning, score 0-5): −0.152 (0.0727)
Diary ocular discomfort and burning improvement from baseline compared to placebo ([2]; Day 1 to Day 7, evening): not significant in the evening
Diary dryness improvement from baseline compared to placebo (FIG. 3A) ([2]; Day 1 to Day 7, evening, pre-CAE baseline): significantly better improvement
Diary dryness improvement from baseline compared to placebo (FIG. 3A) [2, 4]: not significantly better in the morning
Diary ocular discomfort and burning improvement from baseline compared to placebo [2, 4]: significantly better improvements
Diary Dryness Change from Baseline, ANCOVA LS Mean (SE) [2, 5]: −0.377 (0.0651)
Diary Dryness Change from Baseline, Mean (SD) ([2]; Day 8 to 15, Evening): −0.382 (0.6917)
Diary Dryness Change from Baseline, ANCOVA LS Mean Difference (SE), BRM421 OS − Placebo [2, 5]: −0.036 (0.0901)
Diary Dryness Change from Baseline, Two-Sample t-test Sample Mean Difference (SE), BRM421 OS − Placebo [2, 5]: −0.029 (0.0915)
Diary Burning Change from Baseline, ANCOVA LS Mean (SE) [2, 6]: −0.313 (0.0640)
Diary Ocular Discomfort Change from Baseline, ANCOVA LS Mean (SE) [2, 6]: −0.223 (0.0656)
Diary Burning Change from Baseline, Mean (SD) ([2]; Day 8 to 15, Morning): −0.332 (0.7199)
Diary Ocular Discomfort Change from Baseline, Mean (SD) ([2]; Day 8 to 15, Morning): −0.248 (0.6696)
Diary Burning Change from Baseline, ANCOVA LS Mean Difference (SE), BRM421 OS − Placebo [2, 6]: −0.048 (0.0884)
Diary Burning Change from Baseline, Two-Sample t-test Sample Mean Difference (SE), BRM421 OS − Placebo [2, 6]: −0.048 (0.0939)
Diary Ocular Discomfort Change from Baseline, ANCOVA LS Mean Difference (SE), BRM421 OS − Placebo [2, 6]: −0.049 (0.0906)
Diary Ocular Discomfort Change from Baseline, Two-Sample t-test Sample Mean Difference (SE), BRM421 OS − Placebo [2, 6]: −0.058 (0.0936)
ODS dryness versus placebo (FIG. 3B) ([2]; Visit 3, both pre-CAE and post-CAE evaluations as baselines): no significant difference
ODS burning and ODS stinging versus placebo (FIG. 3B) ([2]; Visit 3, post-CAE evaluations): significant effects
Corneal damage repair compared to placebo (FIG. 5D) ([3]; patients with cataract and surgery): slight improvements
Corneal damage repair compared to placebo (FIG. 5C) ([3]; patients with cataract but without surgery): significant improvements; also recorded: more significant
Corneal damage repair compared to placebo (FIG. 5B) ([3]; subjects with cataract): significant improvements
Corneal damage repair (FIG. 5A) ([3]; subjects without cataract): did not show significant improvements

Reference: patent US20250360185A1, “COMPOSITIONS COMPRISING PEDF-DERIVED SHORT PEPTIDES FOR THE TREATMENT OF DRY EYE DISEASES” (BRIM Biotechnology, Inc., priority 2022, published 2025)
